Data taken from PubChem BioAssay (NCI).
Where “and” joins values, the source holds several entries; their conditions need not be identical. Equal values may be shown once.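 Cultured in 96-well plates, cells were exposed to test compound for 48 hours across five concentrations. GI50: concentration for 50% inhibition of growth. The concentration for full growth arrest is given as TGI.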

Columns and labels:
Test in all cases: growth of human tumour cells (NCI), 48 h
[1] = test system: 786-0 renal
[2] = test system: A498 renal
[3] = test system: A549 NSCLC
[4] = test system: ACHN renal
[5] = test system: BT-549 breast
[6] = test system: CAKI-1 renal
[7] = test system: CCRF-CEM leukemia
[8] = test system: COLO 205 colon
[9] = test system: DU-145 prostate
[10] = test system: EKVX NSCLC
[11] = test system: HCC-2998 colon
[12] = test system: HCT-116 colon
[13] = test system: HCT-15 colon
[14] = test system: HL-60(TB) leukemia
[15] = test system: HOP-62 NSCLC
[16] = test system: HOP-92 NSCLC
[17] = test system: HS 578T breast
[18] = test system: HT29 colon
[19] = test system: IGROV1 ovarian
[20] = test system: K-562 leukemia
[21] = test system: KM12 colon
[22] = test system: LOX IMVI melanoma
[23] = test system: M14 melanoma
[24] = test system: MALME-3M melanoma
[25] = test system: MCF7 breast
[26] = test system: MDA-MB-231 breast
[27] = test system: MDA-MB-435
[28] = test system: MOLT-4 leukemia
[29] = test system: NCI-H226 lung
[30] = test system: NCI-H23 lung
[31] = test system: NCI-H460 lung
[32] = test system: NCI-H522 lung
[33] = test system: NCI/ADR-RES ovarian
[34] = test system: OVCAR-3 ovarian
[35] = test system: OVCAR-4 ovarian
[36] = test system: OVCAR-5 ovarian
[37] = test system: OVCAR-8 ovarian
[38] = test system: PC-3 prostate
[39] = test system: RPMI-8226 leukemia
[40] = test system: RXF 393 renal
[41] = test system: SF-268 CNS
[42] = test system: SF-295 CNS
[43] = test system: SF-539 CNS
[44] = test system: SK-MEL-2 melanoma
[45] = test system: SK-MEL-28 melanoma
[46] = test system: SK-MEL-5 melanoma
[47] = test system: SK-OV-3 ovarian
[48] = test system: SN12C renal
[49] = test system: SNB-19 CNS
[50] = test system: SNB-75 CNS
[51] = test system: SR leukemia
[52] = test system: SW-620 colon
[53] = test system: T-47D breast
[54] = test system: TK-10 renal
[55] = test system: U251 CNS
[56] = test system: UACC-257 melanoma
[57] = test system: UACC-62 melanoma
[58] = test system: UO-31 renal

CCc1cnn2c(NCc3ccc[n+]([O-])c3)cc(N3CCCC[C@H]3CCO)nc12
GI50 [1]: 10.1 nM and 4.94 nM
TGI [1]: > 100000 nM
GI50 [2]: 2.9 nM
TGI [2]: 9.04 nM
GI50 [3]: < 16.3 nM and 8.53 nM
TGI [3]: > 10000 nM
GI50 [4]: < 15.5 nM and 13.2 nM
TGI [4]: > 10000 nM
GI50 [5]: < 10 nM and 3.31 nM
TGI [5]: < 18.3 nM and 30.5 nM
GI50 [6]: 49.1 nM and 9.11 nM
TGI [6]: > 63400 nM
GI50 [7]: < 10 nM and 3.31 nM
GI50 [8]: < 10 nM and 2.35 nM
TGI [8]: < 10 nM and 5.86 nM
GI50 [9]: < 12.7 nM and 7.28 nM
TGI [9]: > 10000 nM
GI50 [10]: < 10 nM and 9.02 nM
TGI [10]: 138 nM and 52.4 nM
GI50 [11]: < 10 nM and 4.5 nM
TGI [11]: 49.2 nM and 34.7 nM
GI50 [12]: < 10 nM and 3.45 nM
TGI [12]: > 100000 nM
GI50 [13]: 35.1 nM and 25.3 nM
TGI [13]: > 35000 nM
GI50 [14]: < 10 nM and 3.19 nM
TGI [14]: < 10 nM and 11.2 nM
GI50 [15]: < 10 nM and 4.15 nM
TGI [15]: 35.1 nM
GI50 [16]: < 14.2 nM and 2.99 nM
TGI [16]: < 26.9 nM and 14.5 nM
GI50 [17]: < 10 nM and 2.36 nM
TGI [17]: 8.05 nM
GI50 [18]: < 10 nM and 4.41 nM
GI50 [19]: < 10 nM and 3.3 nM
TGI [19]: > 10000 nM
GI50 [20]: 15.5 nM and 4.49 nM
TGI [20]: > 100000 nM
GI50 [21]: < 10 nM and 3.4 nM
TGI [21]: > 10000 nM
GI50 [22]: < 10 nM and 2.76 nM
TGI [22]: > 100000 nM
GI50 [23]: < 10 nM and 4.38 nM
TGI [23]: 23.5 nM and 35.1 nM
GI50 [24]: < 12.6 nM and 7.54 nM
TGI [24]: 27.2 nM and 32.4 nM
GI50 [25]: < 10 nM and 2.21 nM
TGI [25]: > 100000 nM
GI50 [26]: < 10 nM and 4.2 nM
TGI [26]: > 100000 nM
GI50 [27]: < 10 nM and 3.31 nM
GI50 [28]: < 10 nM and 3.93 nM
TGI [28]: < 13.6 nM
GI50 [29]: < 12.9 nM and 6.89 nM
TGI [29]: 39.5 nM
GI50 [30]: < 10 nM and 4.16 nM
TGI [30]: 17.4 nM and 21.4 nM
GI50 [31]: < 10 nM and 4.64 nM
TGI [31]: > 44800 nM
GI50 [32]: < 10 nM and 2.19 nM
TGI [32]: < 10 nM and 5.49 nM
GI50 [33]: 162 nM and 146 nM
TGI [33]: 2530 nM and > 6610 nM
GI50 [34]: 3.27 nM
TGI [34]: > 10000 nM
GI50 [35]: < 10.5 nM and 7.98 nM
GI50 [36]: < 10 nM and 4.92 nM
TGI [36]: > 35700 nM
GI50 [37]: < 10 nM and 4.46 nM
TGI [37]: > 100000 nM
GI50 [38]: < 13.2 nM and 7.62 nM
TGI [38]: 79.2 nM and 111 nM
GI50 [39]: < 10 nM and 6.68 nM
TGI [39]: 24.4 nM and 43.6 nM
GI50 [40]: < 10 nM and 1.88 nM
TGI [40]: < 10 nM and 4.46 nM
GI50 [41]: < 10 nM and 3.48 nM
TGI [41]: 57.6 nM and 373 nM
GI50 [42]: < 12.9 nM and 7.32 nM
TGI [42]: 96.2 nM and 60.2 nM
GI50 [43]: < 10 nM and 2.28 nM
TGI [43]: < 11.6 nM and 7.56 nM
GI50 [44]: < 10 nM and 3.15 nM
TGI [44]: 23.7 nM and 10.7 nM
GI50 [45]: < 10 nM and 4.93 nM
TGI [45]: 29.7 nM and 71.3 nM
GI50 [46]: < 10 nM and 4.69 nM
TGI [46]: 23.7 nM and 207 nM
GI50 [47]: 39.1 nM and 33.8 nM
TGI [47]: > 100000 nM
GI50 [48]: < 10 nM and 4.06 nM
TGI [48]: > 100000 nM
GI50 [49]: < 10.7 nM and 3.66 nM
TGI [49]: > 100000 nM
GI50 [50]: < 10 nM and 1.74 nM
TGI [50]: < 14.5 nM and 4.37 nM
GI50 [51]: < 10 nM and 1.6 nM
TGI [51]: < 10 nM
GI50 [52]: < 10 nM and 3.22 nM
TGI [52]: > 100000 nM
GI50 [53]: < 10 nM and 4.85 nM
TGI [53]: 77.7 nM
GI50 [54]: < 15.6 nM and 9.16 nM
TGI [54]: 1950 nM and > 2070 nM
GI50 [55]: < 10 nM and 3.68 nM
TGI [55]: > 100000 nM
GI50 [56]: < 13.5 nM and 7.4 nM
GI50 [57]: < 10 nM and 3.45 nM
TGI [57]: 30.7 nM and 16.8 nM
GI50 [58]: 20.1 nM and 22.8 nM
TGI [58]: 69.2 nM
